Source: patent publication US9181264B2, “Fused heteroaryls and their uses” (Hutchison MediPharma Limited, priority 2011, dated 2015)

Columns and labels:
PI3Kα kinase = biological target: T1, PI3Kα kinase (Homo sapiens, UniProt P42336); assay: PI3Ka Transcreener ADP assay (fluorescence polarization); type: biochemical; settings: 10 μM ATP, 30 μmol/L lipid substrate; read-out: IC50, inhibition of PI3Kα kinase
T1 construct: purchased Invitrogen PV4788
How it was run: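 Transcreener ADP FP assay with PI3Kα (0.2 ng/μL), 30 μmol/L lipid substrate (PIP2) and 10 μM ATP (final) in HEPES pH 7.5 buffer with MgCl2, 0.03% CHAPS, 2% DMSO. 60 min reaction at room temperature, then ADP detection 1.5 h (ex 610/em 670 nm). ADP from standard curve; IC50 fitted.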

mTOR kinase = biological target: T2, mTOR kinase (Homo sapiens, UniProt P42345); assay: mTOR LanthaScreen TR-FRET assay; type: biochemical; settings: 10 μmol/L ATP, GFP-4EBP1 substrate; read-out: IC50, inhibition of mTOR
T2 construct: purchased Invitrogen PV4753
Method: Compounds are tested using LanthaScreen TR-FRET Assay. The kinase reaction is completed in 384-well black plate (Corning, Cat. 3676). The final conditions for kinase assay are: 10 μmol/L of ATP, 0.2 ng/μL of mTOR kinase, 0.4 μmol/L of GFP-4EBP1 substrate and assay buffer (50 mmol/L of HEPES, pH 7.5, 0.01% of Tween 20, 1 mmol/L of EGTA, 10 mmol/L of MnCl2, 2 mmol/L of DTT and 1% DMSO).
To each well, 2.5 μL of test compounds in 4% DMSO and 2.5 μL of 0.8 ng/μL mTOR kinase (Invitrogen, PV4753) diluted in assay buffer are added. The reaction is initiated by the addition of 5 μL mixture of 0.8 μmol/L GFP-4EBP1 Substrate (Invitorgen, PV4759) and 20 μmol/L ATP mixtures. The mixture is incubated at room temperature for 60 minutes. 10 μL of 20 mmol/L EDTA and 4 nmol/L Tb-anti-p4EBP1 [pThr46] antibody (Invitrogen, PV4755) diluted in TR-FRET dilution buffer are added and incubated for an additional 1 hour. The plate is then read in a BioTek Synergy2 Reader at excitation of 340 nm and emission of 490 nm and 528 nm.
The inhibition of test compound is calculated based on the ratio of 528 nm/490 nm. IC50 of test compound is obtained using XLfit 2.0 software.

T2 sequence (P42345 1360-2549 limits assumed): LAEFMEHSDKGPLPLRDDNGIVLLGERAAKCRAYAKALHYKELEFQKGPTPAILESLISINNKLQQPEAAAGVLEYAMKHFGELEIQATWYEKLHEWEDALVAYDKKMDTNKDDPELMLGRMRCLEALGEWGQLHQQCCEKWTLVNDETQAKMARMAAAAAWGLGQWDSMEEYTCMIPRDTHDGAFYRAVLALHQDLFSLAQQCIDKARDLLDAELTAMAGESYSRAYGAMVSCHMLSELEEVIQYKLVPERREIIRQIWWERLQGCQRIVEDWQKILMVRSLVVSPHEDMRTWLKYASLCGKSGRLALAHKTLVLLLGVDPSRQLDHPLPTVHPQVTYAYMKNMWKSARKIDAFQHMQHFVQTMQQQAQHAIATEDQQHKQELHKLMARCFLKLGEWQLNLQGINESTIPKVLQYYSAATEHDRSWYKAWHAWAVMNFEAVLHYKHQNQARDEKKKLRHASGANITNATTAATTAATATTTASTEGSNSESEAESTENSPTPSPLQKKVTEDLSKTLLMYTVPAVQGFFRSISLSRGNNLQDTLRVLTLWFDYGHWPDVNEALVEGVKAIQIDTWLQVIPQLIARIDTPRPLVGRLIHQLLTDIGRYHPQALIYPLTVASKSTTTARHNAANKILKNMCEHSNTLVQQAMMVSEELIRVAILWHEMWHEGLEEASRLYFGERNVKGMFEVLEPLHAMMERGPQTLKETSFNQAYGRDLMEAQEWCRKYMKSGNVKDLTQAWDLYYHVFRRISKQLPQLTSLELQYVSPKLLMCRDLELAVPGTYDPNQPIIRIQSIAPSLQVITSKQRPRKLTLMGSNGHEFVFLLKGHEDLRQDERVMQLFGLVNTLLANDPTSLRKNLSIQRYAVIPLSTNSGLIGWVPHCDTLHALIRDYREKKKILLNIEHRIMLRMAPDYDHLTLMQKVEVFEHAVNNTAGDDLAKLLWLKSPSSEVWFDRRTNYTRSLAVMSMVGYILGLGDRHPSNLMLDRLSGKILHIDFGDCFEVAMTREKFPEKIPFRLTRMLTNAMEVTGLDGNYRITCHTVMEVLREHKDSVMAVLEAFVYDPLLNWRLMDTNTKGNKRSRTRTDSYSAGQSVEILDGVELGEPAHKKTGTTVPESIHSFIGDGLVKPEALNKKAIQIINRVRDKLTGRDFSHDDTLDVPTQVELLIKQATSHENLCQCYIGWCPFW
T1 sequence (P42336 whole entry): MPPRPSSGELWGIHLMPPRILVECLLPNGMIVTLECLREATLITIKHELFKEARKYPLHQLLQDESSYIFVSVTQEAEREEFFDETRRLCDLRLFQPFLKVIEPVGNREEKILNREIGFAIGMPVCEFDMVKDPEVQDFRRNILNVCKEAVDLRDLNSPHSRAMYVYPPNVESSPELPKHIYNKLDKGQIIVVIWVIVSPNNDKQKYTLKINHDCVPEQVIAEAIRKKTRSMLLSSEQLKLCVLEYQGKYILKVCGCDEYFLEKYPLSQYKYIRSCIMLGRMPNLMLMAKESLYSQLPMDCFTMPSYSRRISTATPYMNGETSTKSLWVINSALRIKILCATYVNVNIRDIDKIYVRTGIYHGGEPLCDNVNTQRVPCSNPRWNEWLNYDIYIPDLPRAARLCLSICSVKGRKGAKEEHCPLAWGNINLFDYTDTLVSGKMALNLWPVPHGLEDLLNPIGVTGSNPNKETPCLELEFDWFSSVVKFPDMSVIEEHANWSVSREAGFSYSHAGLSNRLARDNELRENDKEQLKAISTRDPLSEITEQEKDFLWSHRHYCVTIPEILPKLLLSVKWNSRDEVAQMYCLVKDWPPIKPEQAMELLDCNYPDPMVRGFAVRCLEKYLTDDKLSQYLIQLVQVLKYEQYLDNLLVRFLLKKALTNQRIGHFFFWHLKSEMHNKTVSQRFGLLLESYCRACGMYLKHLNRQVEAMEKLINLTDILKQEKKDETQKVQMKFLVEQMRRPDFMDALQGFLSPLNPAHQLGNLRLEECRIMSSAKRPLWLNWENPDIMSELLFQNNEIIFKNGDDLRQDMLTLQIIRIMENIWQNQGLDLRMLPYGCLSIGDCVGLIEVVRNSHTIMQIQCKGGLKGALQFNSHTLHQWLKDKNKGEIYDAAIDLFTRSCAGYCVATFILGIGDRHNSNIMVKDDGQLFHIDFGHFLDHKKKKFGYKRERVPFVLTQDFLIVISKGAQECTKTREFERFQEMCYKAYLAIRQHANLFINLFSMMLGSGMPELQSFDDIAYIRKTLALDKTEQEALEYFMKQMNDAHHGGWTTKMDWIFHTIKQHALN
T1 sequence (P27986 whole entry partner): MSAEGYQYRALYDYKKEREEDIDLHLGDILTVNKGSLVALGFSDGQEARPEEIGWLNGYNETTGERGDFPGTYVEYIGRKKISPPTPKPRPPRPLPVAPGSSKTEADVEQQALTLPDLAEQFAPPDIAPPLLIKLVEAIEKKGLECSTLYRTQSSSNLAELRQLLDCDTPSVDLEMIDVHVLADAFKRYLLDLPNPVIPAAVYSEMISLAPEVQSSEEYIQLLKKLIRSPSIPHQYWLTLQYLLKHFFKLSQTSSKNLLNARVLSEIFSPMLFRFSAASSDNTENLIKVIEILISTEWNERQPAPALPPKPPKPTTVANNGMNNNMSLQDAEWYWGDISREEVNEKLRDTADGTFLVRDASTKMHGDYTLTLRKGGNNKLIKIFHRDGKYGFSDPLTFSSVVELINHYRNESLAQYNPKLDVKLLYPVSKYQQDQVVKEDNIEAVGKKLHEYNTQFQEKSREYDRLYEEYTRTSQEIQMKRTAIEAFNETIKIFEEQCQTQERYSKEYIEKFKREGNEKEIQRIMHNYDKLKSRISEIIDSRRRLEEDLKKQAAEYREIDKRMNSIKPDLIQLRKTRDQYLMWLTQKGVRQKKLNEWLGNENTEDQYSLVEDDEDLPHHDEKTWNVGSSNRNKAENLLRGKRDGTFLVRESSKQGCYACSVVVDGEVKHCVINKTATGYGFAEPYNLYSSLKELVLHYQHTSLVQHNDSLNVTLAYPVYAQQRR

SMILES	IC50 (PI3Kα kinase)	IC50 (mTOR kinase)
Cc1nc2cnc3ccc(-c4cnc(N)c(C(F)(F)F)c4)nc3c2n1C1CCN(CC(=O)N(C)C)CC1 [Compound 123]	< 100 nM	< 100 nM
Cc1nc2cnc3ccc(-c4cnc(N)c(C(F)(F)F)c4)nc3c2n1C1CCN(CCO)CC1 [Compound 129]	< 100 nM	< 100 nM
CCc1nc2cnc3ccc(-c4cnc(N)c(C(F)(F)F)c4)nc3c2n1C1CCOCC1 [Compound 131]	< 100 nM	< 100 nM
COc1ncc(-c2ccc3ncc4nnc(C)n4c3c2)cc1NS(=O)(=O)c1ccc(F)cc1F [Compound 147, 2,4-difluoro-N-(2-methoxy-5-(1-methyl-[1,2,4]triazolo[4,3-a]quinoxalin-8-yl)pyridin-3-yl)benzenesulfonamide]	< 100 nM	< 100 nM
COc1ncc(-c2ccc3ncc4nn(C)c(=O)n4c3c2)cc1NS(=O)(=O)c1ccc(F)cc1F [Compound 148]	< 100 nM	< 100 nM
CCn1nc2cnc3ccc(-c4cnc(OC)c(NS(=O)(=O)c5ccc(F)cc5F)c4)cc3n2c1=O [Compound 149]	< 100 nM	< 100 nM
COc1ncc(-c2ccc3ncc4nc(C)n(C)c4c3n2)cc1NS(=O)(=O)c1ccc(F)cc1F [Compound 151]	< 100 nM	< 100 nM
COc1ncc(-c2ccc3ncc4nnc(-c5ccc(F)cc5)n4c3c2)cc1NS(C)(=O)=O [Compound 152]	< 100 nM	< 100 nM
COc1ncc(-c2ccc3ncc4ncn(C)c4c3n2)cc1NS(=O)(=O)c1ccc(F)cc1F [Compound 153]	< 100 nM	< 100 nM
COc1ncc(-c2ccc3ncc4nnn(C)c4c3n2)cc1NS(=O)(=O)c1ccc(F)cc1F [Compound 154]	< 100 nM	< 100 nM
COc1ncc(-c2ccc3ncc4nnc(C)n4c3c2)cc1NS(=O)(=O)C(F)(F)F [Compound 155]	< 100 nM	< 100 nM

Further lines, results first:

IC50 (PI3Kα kinase)	IC50 (mTOR kinase)	SMILES
< 100 nM	< 100 nM	Cc1ncc(-c2ccc3ncc4nnc(C)n4c3c2)cc1NS(=O)(=O)c1ccc(F)cc1F [Compound 156]
< 100 nM	< 100 nM	COc1ncc(-c2ccc3ncc4nnc(OC)n4c3c2)cc1NS(=O)(=O)c1ccc(F)cc1F [Compound 157]
< 100 nM	< 100 nM	COc1ncc(-c2ccc3ncc4nnc(CN(C)C)n4c3c2)cc1NS(=O)(=O)c1ccc(F)cc1F [Compound 158]
< 100 nM	< 100 nM	COc1ncc(-c2ccc3ncc4ncn(C)c4c3n2)cc1NS(=O)(=O)C(F)(F)F [Compound 159]
< 100 nM	< 100 nM	COc1ncc(-c2ccc3ncc4c(c3c2)n(C)c(=O)n4C)cc1NS(=O)(=O)c1ccc(F)cc1F [Compound 160]
< 100 nM	< 100 nM	COc1ncc(-c2ccc3ncc4nnc(CN(C)C)n4c3c2)cc1NS(=O)(=O)C(F)(F)F [Compound 165]
< 100 nM	< 100 nM	COc1ncc(-c2ccc3ncc4nc(C)n(C)c4c3n2)cc1NS(=O)(=O)C(F)(F)F [Compound 166]
< 100 nM	< 100 nM	COc1ncc(-c2ccc3ncc4ncn(CCN(C)C)c4c3n2)cc1NS(=O)(=O)C(F)(F)F [Compound 178]
< 100 nM	< 100 nM	COc1ncc(-c2ccc3ncc4nnc(C)n4c3c2)cc1NS(=O)(=O)c1ccccc1F [Compound 180]
< 100 nM	< 100 nM	COc1ncc(-c2ccc3ncc4nnc(C)n4c3c2)cc1NS(=O)(=O)c1ccccc1 [Compound 181]
